This note sets out measurements from ChEMBL document CHEMBL3046555, “Synthesis and Microbiological Evaluation of Novel [N-Acetyl-2,6-Diarylpiperidin-4-YL]-5-Spiro-4-Acetyl-2-(Acetylamino)-2-1,3,4-Thiadiazolines” (2004).

For one experiment, the system named is Escherichia coli. As to the kind of experiment: Antibacterial activity against Escherichia coli after 24 hr by two-fold serial dilution method. Type of experiment: functional.
Experiment [1] concerns Pseudomonas aeruginosa. As to the kind of experiment: Antibacterial activity against Pseudomonas aeruginosa after 24 hr by two-fold serial dilution method. Format: functional.
In a further experiment the test system is Bacillus subtilis. As to the kind of experiment: Antibacterial activity against Bacillus subtilis after 24 hr by two-fold serial dilution method. Format: functional.
For experiment [2], the system named is Klebsiella pneumoniae. As to the kind of experiment: Antibacterial activity against Klebsiella pneumoniae after 24 hr by two-fold serial dilution method. Format: functional.
Experiment [3] has as its system Enterococcus faecalis. As to the kind of experiment: Antibacterial activity against Enterococcus faecalis after 24 hr by two-fold serial dilution method. Type of experiment: functional.
Experiment [4] deals with Candida. As to the kind of experiment: Antifungal activity against Candida-51 after 72 to 96 hr by two-fold serial dilution method. Type of experiment: functional.
For experiment [5], the system named is Aspergillus flavus. As to the kind of experiment: Antifungal activity against Aspergillus flavus after 72 to 96 hr by two-fold serial dilution method. Format: functional.
The test system of experiment [6] is Candida. As to the kind of experiment: Antifungal activity against Candida-6 after 72 to 96 hr by two-fold serial dilution method. Type of experiment: functional.
Experiment [7] has as its system Cryptococcus neoformans. As to the kind of experiment: Antifungal activity against Cryptococcus neoformans after 72 to 96 hr by two-fold serial dilution method. Format: functional.
A further experiment concerns Aspergillus niger. As to the kind of experiment: Antifungal activity against Aspergillus niger after 72 to 96 hr by two-fold serial dilution method. Format: functional.
The subject of experiment [8] is Pseudomonas aeruginosa. As to the kind of experiment: Antibacterial activity against Pseudomonas aeruginosa at 100 ug/ml after 24 hr by two-fold serial dilution method. Type of experiment: functional, organism-based.
The test system of experiment [9] is Candida. As to the kind of experiment: Antifungal activity against Candida-51 at 100 ug/ml after 72 to 96 hr by two-fold serial dilution method. Type of experiment: functional, organism-based.
In experiment [10] the test system is Klebsiella pneumoniae. As to the kind of experiment: Antibacterial activity against Klebsiella pneumoniae at 100 ug/ml after 24 hr by two-fold serial dilution method. Format: functional, organism-based.
In experiment [11] the test system is Candida. As to the kind of experiment: Antifungal activity against Candida-6 at 100 ug/ml after 72 to 96 hr by two-fold serial dilution method. Type of experiment: functional, organism-based.
In experiment [12] the test system is Cryptococcus neoformans. As to the kind of experiment: Antifungal activity against Cryptococcus neoformans at 100 ug/ml after 72 to 96 hr by two-fold serial dilution method. Format: functional, organism-based.
Experiment [13] concerns Aspergillus flavus. As to the kind of experiment: Antifungal activity against Aspergillus flavus at 100 ug/ml after 72 to 96 hr by two-fold serial dilution method. Format: functional, organism-based.
The test system of experiment [14] is Enterococcus faecalis. As to the kind of experiment: Antibacterial activity against Enterococcus faecalis at 100 ug/ml after 24 hr by two-fold serial dilution method. Format: functional, organism-based.

Converted amounts (≈) assume the structure as drawn. The source made the active and inactive calls. The calls are words filed in the database; no cut-off is given here.

As to `CC1(C)S[C@@H]2[C@H](NC(=O)Cc3ccccc3)C(=O)N2[C@H]1C(=O)O` [PENICILLIN G], the MIC against Escherichia coli is 50 µg/mL (≈ 150 µM); against Pseudomonas aeruginosa [1], 50 µg/mL (≈ 150 µM); with Bacillus subtilis, 25 µg/mL (≈ 74.8 µM); against Klebsiella pneumoniae [2], 12.5 µg/mL (≈ 37.4 µM); against Enterococcus faecalis [3], 12.5 µg/mL (≈ 37.4 µM).

For `CC(=O)NC1=NN(C(C)=O)C2(CC(c3ccc(Cl)cc3)N(C(C)=O)C(c3ccc(Cl)cc3)C2)S1` (stereo not given), the MIC in the experiment on Escherichia coli stood at 50 µg/mL (≈ 96.3 µM); in the experiment on Candida [4] it was 50 µg/mL (≈ 96.3 µM); against Pseudomonas aeruginosa [1], 25 µg/mL (≈ 48.1 µM); in the experiment on Aspergillus flavus [5] it was 50 µg/mL (≈ 96.3 µM); in the experiment on Bacillus subtilis it was 50 µg/mL (≈ 96.3 µM); against Klebsiella pneumoniae [2] it was 25 µg/mL (≈ 48.1 µM). The MIC against Candida [6] came to 50 µg/mL (≈ 96.3 µM); against Enterococcus faecalis [3], 25 µg/mL (≈ 48.1 µM); in the experiment with Cryptococcus neoformans [7], 25 µg/mL (≈ 48.1 µM); in the experiment on Aspergillus niger it was 25 µg/mL (≈ 48.1 µM).

With `CC(=O)NC1=NN(C(C)=O)C2(CC(c3ccccc3)N(C(C)=O)C(c3ccccc3)C2C)S1` (stereo not given), the MIC with Escherichia coli turned out to be 50 µg/mL (≈ 108 µM); against Aspergillus flavus [5] it was 100 µg/mL (≈ 215 µM); in the experiment on Bacillus subtilis, 100 µg/mL (≈ 215 µM); in the experiment with Enterococcus faecalis [3], 100 µg/mL (≈ 215 µM); with Aspergillus niger it was 50 µg/mL (≈ 108 µM). The inhibition entry in the experiment on Pseudomonas aeruginosa [8], with Candida [9], with Klebsiella pneumoniae [10], with Candida [11] and in the experiment on Cryptococcus neoformans [12] was “inactive” each time.

As for `CC(=O)NC1=NN(C(C)=O)C2(CC(c3ccccc3)N(C(C)=O)C(c3ccccc3)C2)S1` (stereo not given), the values for the MIC against Escherichia coli, with Bacillus subtilis and in the experiment with Aspergillus niger were 50 µg/mL (≈ 111 µM), 100 µg/mL (≈ 222 µM) and 100 µg/mL (≈ 222 µM), respectively. Further, the inhibition result with Pseudomonas aeruginosa [8], with Candida [9], in the experiment with Klebsiella pneumoniae [10], in the experiment on Candida [11], with Aspergillus flavus [13] and in the experiment with Enterococcus faecalis [14] was “inactive” in each case. Besides, the inhibition result with Cryptococcus neoformans [12] was “inactive”.

Take `CN[C@@H]1[C@H](O[C@H]2[C@H](O[C@H]3[C@H](O)[C@@H](O)[C@H](N=C(N)N)[C@@H](O)[C@@H]3N=C(N)N)O[C@@H](C)[C@]2(O)C=O)O[C@@H](CO)[C@H](O)[C@H]1O` [STREPTOMYCIN]: the MIC in the experiment with Escherichia coli worked out at 12.5 µg/mL (≈ 21.5 µM); against Pseudomonas aeruginosa [1] it was 25 µg/mL (≈ 43 µM); against Bacillus subtilis, 12.5 µg/mL (≈ 21.5 µM); in the experiment with Klebsiella pneumoniae [2] it was 25 µg/mL (≈ 43 µM); in the experiment on Enterococcus faecalis [3] it was 50 µg/mL (≈ 86 µM).

For `CC(=O)NC1=NN(C(C)=O)C2(CC(c3ccc(Cl)cc3)N(C(C)=O)C(c3ccc(Cl)cc3)C2C)S1` (stereo not given), the MIC with Escherichia coli came to 25 µg/mL (≈ 46.9 µM); in the experiment with Candida [4], 25 µg/mL (≈ 46.9 µM); against Pseudomonas aeruginosa [1], 25 µg/mL (≈ 46.9 µM); against Aspergillus flavus [5] it was 50 µg/mL (≈ 93.7 µM); with Bacillus subtilis, 50 µg/mL (≈ 93.7 µM); with Klebsiella pneumoniae [2], 12.5 µg/mL (≈ 23.4 µM). Besides, the MIC amounted to 25 µg/mL (≈ 46.9 µM) against Candida [6], 12.5 µg/mL (≈ 23.4 µM) with Enterococcus faecalis [3], 12.5 µg/mL (≈ 23.4 µM) with Cryptococcus neoformans [7] and 25 µg/mL (≈ 46.9 µM) against Aspergillus niger.

`CC(=O)NC1=NN(C(C)=O)C2(CC(c3ccc(C)cc3)N(C(C)=O)C(c3ccc(C)cc3)C2C)S1` (stereo not given): the MIC with Escherichia coli came to 50 µg/mL (≈ 101 µM); against Candida [4], 100 µg/mL (≈ 203 µM); in the experiment on Pseudomonas aeruginosa [1], 50 µg/mL (≈ 101 µM); against Aspergillus flavus [5], 100 µg/mL (≈ 203 µM); against Bacillus subtilis, 100 µg/mL (≈ 203 µM); against Klebsiella pneumoniae [2], 25 µg/mL (≈ 50.7 µM). Besides, the MIC with Candida [6], against Enterococcus faecalis [3] and against Aspergillus niger was 50 µg/mL (≈ 101 µM) each time. Further, the inhibition result with Cryptococcus neoformans [12] was “inactive”.

With `CC(=O)NC1=NN(C(C)=O)C2(CC(c3ccc(C)cc3)N(C(C)=O)C(c3ccc(C)cc3)C2)S1` (stereo not given), the MIC with Escherichia coli is 100 µg/mL (≈ 209 µM); in the experiment on Candida [4], 100 µg/mL (≈ 209 µM); against Pseudomonas aeruginosa [1], 100 µg/mL (≈ 209 µM); against Bacillus subtilis, 100 µg/mL (≈ 209 µM); with Klebsiella pneumoniae [2] it was 100 µg/mL (≈ 209 µM); in the experiment on Candida [6] it was 50 µg/mL (≈ 104 µM). Moreover, the values for the MIC in the experiment with Enterococcus faecalis [3] and against Aspergillus niger were 100 µg/mL (≈ 209 µM) and 50 µg/mL (≈ 104 µM), respectively. The inhibition result in the experiment with Aspergillus flavus [13] and in the experiment with Cryptococcus neoformans [12] was “inactive” in each case.

As for `COc1ccc(C2CC3(SC(NC(C)=O)=NN3C(C)=O)C(C)C(c3ccc(OC)cc3)N2C(C)=O)cc1` (stereo not given), the MIC worked out at 25 µg/mL (≈ 47.7 µM) in the experiment on Escherichia coli; 25 µg/mL (≈ 47.7 µM) in the experiment on Candida [4]; 25 µg/mL (≈ 47.7 µM) in the experiment on Pseudomonas aeruginosa [1]; 25 µg/mL (≈ 47.7 µM) against Aspergillus flavus [5]; 25 µg/mL (≈ 47.7 µM) against Bacillus subtilis; 6.25 µg/mL (≈ 11.9 µM) against Klebsiella pneumoniae [2]. Moreover, the MIC was determined as 50 µg/mL (≈ 95.3 µM) in the experiment with Candida [6], 25 µg/mL (≈ 47.7 µM) in the experiment with Enterococcus faecalis [3], 6.25 µg/mL (≈ 11.9 µM) against Cryptococcus neoformans [7] and 25 µg/mL (≈ 47.7 µM) against Aspergillus niger.

Turning to `COc1ccc(C2CC3(CC(c4ccc(OC)cc4)N2C(C)=O)SC(NC(C)=O)=NN3C(C)=O)cc1` (stereo not given), the MIC in the experiment with Escherichia coli worked out at 25 µg/mL (≈ 49 µM); with Candida [4] it was 50 µg/mL (≈ 97.9 µM); against Pseudomonas aeruginosa [1], 50 µg/mL (≈ 97.9 µM); in the experiment on Aspergillus flavus [5] it was 25 µg/mL (≈ 49 µM); in the experiment with Bacillus subtilis, 25 µg/mL (≈ 49 µM); with Klebsiella pneumoniae [2], 12.5 µg/mL (≈ 24.5 µM). The MIC with Candida [6] turned out to be 25 µg/mL (≈ 49 µM); with Enterococcus faecalis [3], 25 µg/mL (≈ 49 µM); in the experiment on Cryptococcus neoformans [7], 12.5 µg/mL (≈ 24.5 µM); against Aspergillus niger it was 25 µg/mL (≈ 49 µM).

For the compound `C[C@@H]1[C@H](O)[C@@H](C)/C=C/C=C/C=C/C=C/C=C/C=C/C=C/[C@H](O[C@@H]2O[C@H](C)[C@@H](O)[C@H](N)[C@@H]2O)C[C@@H]2O[C@](O)(C[C@@H](O)C[C@@H](O)[C@H](O)CC[C@@H](O)C[C@@H](O)CC(=O)O[C@H]1C)C[C@H](O)[C@H]2C(=O)O` [AMPHOTERICIN B], the MIC in the experiment with Candida [4] was determined as 25 µg/mL (≈ 27.1 µM); in the experiment with Aspergillus flavus [5], 50 µg/mL (≈ 54.1 µM); against Candida [6], 25 µg/mL (≈ 27.1 µM); against Cryptococcus neoformans [7] it was 25 µg/mL (≈ 27.1 µM); with Aspergillus niger, 50 µg/mL (≈ 54.1 µM).
